{"source": "patent US9108930B2", "about": "“N1- and N2-carbamoyl-1,2,3-triazole serine hydrolase inhibitors and methods” (The Scripps Research Institute, priority 2011, dated 2015)", "key": {"[1]": {"system": "serine hydrolases (SHs) in mouse brain and heart", "assay": "In vivo selectivity across SHs in tissues of treated mice (gel-based ABPP, ABPP-SILAM)", "experimental": "(§1) The potency and selectivity of 1,2,3-triazole ureas in vivo also was investigated. Mice were treated with the APEH inhibitor AA74-1 at various doses (0.2-1.6 mg/kg; PEG300 or 18:1:1 saline/ethanol/emulphor intraperitoneally) and sacrificed after 4 h. Brains and hearts were removed, homogenized, and analyzed by gel-based competitive ABPP. […] Finally, the possibility of extending ABPP-SILAC for the characterization of inhibitor selectivity in vivo was explored by taking advantage of recently described protocols for stable isotope labeling in mammals (SILAM). In this approach, brain tissues from vehicle- and AA74-1-treated mice were separately mixed with equivalent amounts of brain tissue from ‘heavy’ amino acid-fed mice, and the samples were then labeled with FP-biotin, enriched by avidin chromatography, analyzed by LC-MS, and SH activities quantified by measuring the ratio-of-ratios for observed peptide signals. […] The ratio-of-ratio signals for APEH indicated greater than 90% inhibition of this enzyme in AA74-1-treated animals (FIG. 5b, top), consistent with average spectral count values (14 and 1 spectral counts for APEH in vehicle-treated versus AA74-1-treated mice, respectively; FIG. 5b, bottom). […] ACHE, an enzyme that is targeted by other reported NHU inhibitors, was not inhibited by AA74-1 in either mouse brain (FIG. 5b) or transfected cell (FIG. 16) proteomes."}, "APEH": {"target": "T1, APEH (Mus musculus, UniProt Q8R146)", "T1 sequence (Q8R146 1-732)": "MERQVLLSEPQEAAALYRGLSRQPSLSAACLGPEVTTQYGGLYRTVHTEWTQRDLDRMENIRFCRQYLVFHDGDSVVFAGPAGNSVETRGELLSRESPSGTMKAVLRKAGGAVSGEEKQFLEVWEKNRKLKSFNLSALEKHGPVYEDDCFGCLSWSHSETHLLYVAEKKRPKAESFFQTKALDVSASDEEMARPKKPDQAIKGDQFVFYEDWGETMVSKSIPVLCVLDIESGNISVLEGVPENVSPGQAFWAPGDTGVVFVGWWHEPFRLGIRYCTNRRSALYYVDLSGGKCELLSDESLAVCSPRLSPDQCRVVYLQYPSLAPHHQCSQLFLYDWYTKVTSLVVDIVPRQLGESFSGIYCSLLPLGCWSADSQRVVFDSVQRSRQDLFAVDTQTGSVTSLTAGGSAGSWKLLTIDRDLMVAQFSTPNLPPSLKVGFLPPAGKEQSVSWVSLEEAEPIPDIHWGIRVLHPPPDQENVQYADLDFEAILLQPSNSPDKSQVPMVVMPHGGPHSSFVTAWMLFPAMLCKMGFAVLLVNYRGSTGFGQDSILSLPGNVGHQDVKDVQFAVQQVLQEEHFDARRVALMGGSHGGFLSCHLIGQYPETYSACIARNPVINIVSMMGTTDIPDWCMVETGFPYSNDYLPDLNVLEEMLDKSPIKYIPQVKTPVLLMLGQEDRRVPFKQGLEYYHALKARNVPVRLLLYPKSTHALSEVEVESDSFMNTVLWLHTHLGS", "assay": "In vivo APEH inhibition, gel-based competitive ABPP of brain and heart", "details": "i.p., 4 h; doses 0.2-1.6 mg/kg", "experimental": "as §1, with “proteomes. […]” for “proteomes.”"}, "[2]": {"system": "serine hydrolases (SHs) in mouse T-cell proteomes", "assay": "Gel-based competitive ABPP, mouse T-cell proteomes in vitro, SH reactivity profile", "assay_type": "biochemical", "details": "100 nM, 30 minutes at 37° C."}, "rat APEH": {"target": "T2, rat APEH (Rattus norvegicus, UniProt P13676)", "T2 construct": "endogenous in cells; host or cells: B103 rat neuroblastoma cells (soluble fraction)", "T2 sequence (P13676 whole entry, the tested form may be a part)": "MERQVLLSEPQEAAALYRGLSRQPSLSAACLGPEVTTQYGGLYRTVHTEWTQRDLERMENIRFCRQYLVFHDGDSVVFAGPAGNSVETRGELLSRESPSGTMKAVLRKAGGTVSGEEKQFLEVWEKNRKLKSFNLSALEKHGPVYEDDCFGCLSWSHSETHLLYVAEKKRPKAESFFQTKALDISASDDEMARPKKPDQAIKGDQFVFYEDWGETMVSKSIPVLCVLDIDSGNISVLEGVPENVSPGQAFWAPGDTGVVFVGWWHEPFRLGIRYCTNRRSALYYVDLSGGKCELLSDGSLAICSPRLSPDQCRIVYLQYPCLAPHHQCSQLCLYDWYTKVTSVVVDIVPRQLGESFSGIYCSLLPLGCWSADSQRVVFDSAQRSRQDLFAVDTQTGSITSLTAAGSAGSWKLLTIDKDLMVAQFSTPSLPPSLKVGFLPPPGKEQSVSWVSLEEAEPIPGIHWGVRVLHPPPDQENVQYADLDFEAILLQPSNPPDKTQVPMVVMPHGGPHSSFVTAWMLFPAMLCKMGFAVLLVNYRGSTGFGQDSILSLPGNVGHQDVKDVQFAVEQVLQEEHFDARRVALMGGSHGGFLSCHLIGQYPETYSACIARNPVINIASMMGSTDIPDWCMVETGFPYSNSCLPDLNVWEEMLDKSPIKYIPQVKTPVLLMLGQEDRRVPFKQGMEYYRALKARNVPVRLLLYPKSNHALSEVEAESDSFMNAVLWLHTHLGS", "assay": "Competitive ABPP, soluble fraction of rat neuroblastoma (B103) cells", "assay_type": "biochemical", "experimental": "The soluble fractions of human ovarian (SKOV3), melanoma (C8161), and breast (MDA-MB-231) cancer cells, as well as rat neuroblastoma (B103) cells were treated with 30 nM AA74-1 or DMSO for 30 minutes at 37° C., after which the samples were analyzed by competitive ABPP. Inhibited APEH is highlighted with boxes. Note that other SHs detected in human and mouse proteomes were not inhibited by AA74-1."}}, "note": "pIC50: −log10 of the molar value."}
{"smiles": "CC(C)CC(O)(CC(C)C)c1cnn(C(=O)N2CCCC2)n1", "note": "[AA74-1]", "values": [{"measurement": "SHs inhibited among 44 SHs identified in brain (ABPP-SILAM)", "setting": "[1]; 0.8 mg/kg, i.p.", "value": "only APEH was inhibited"}, {"measurement": "additional SH targets by gel-based ABPP", "setting": "[1]; brain and heart, 0.2-1.6 mg/kg i.p., 4 h", "value": "No additional SH targets were observed"}, {"measurement": "dose (as low as) giving complete inhibition of APEH in brain and heart", "setting": "APEH", "value": 0.4, "unit": "mg/kg"}, {"measurement": "cross-reactivity with other SHs", "setting": "[2]", "value": "not interacting with other SHs"}, {"measurement": "pIC50", "setting": "rat APEH", "value": 8.15}]}
